# Key:
# [1] = test system: IL-1ß secretion by primary human dermal fibroblasts; experiment: IL-1ß secretion in the HDF proliferation assay with wound exudate (ELISA); assay type: cell-based; details: FIG. 20
# Description: At the end of the 72-hour incubation period, supernatants were removed for the determination of IL-1ß, and the cells were fixed with 4% paraformaldehyde (Morphisto) for 15 minutes at room temperature and washed 3 times with PBS. A control plate was fixed after the overnight adherence of the cells (day 1) to determine the starting cell number.
# IL-1ß levels were determined with a commercial ELISA kit. The amount of IL-1ß contained in the wound exudate added to the cells was subtracted from the total IL-ß in the supernatants in order to determine the cytokine secreted by the cells.
# [2] = test system: alpha-smooth muscle actin (α-SMA) in human dermal fibroblasts; experiment: Immunolocalization of alpha-smooth muscle actin in 2D HDF culture; assay type: cell-based; details: FIG. 16; wound exudates #91 and #55; talazoparib 0.1 μM
# Description: Primary human dermal fibroblasts (HDF) were purchased from CELLnTEC, Bern. They were routinely grown in Dulbecco's modified Eagle's medium (DMEM) containing 10% FCS, 2 mM glutamine, and 100 U/ml penicillin/100 μg/ml streptomycin. Media, antibiotics, and glutamine were bought from Lonza. The cells were used at passage 5-15. Cells were trypsinized and seeded at 5000 cells/well in 200 μl into the inner wells of 96-well plates. The outer wells were loaded with sterile water. The cells were allowed to adhere overnight and then incubated for 72 hours at 37° C. under the following conditions: graded compound concentrations or 20 ng/ml PDGF-BB (Tonbo Biosciences) in the absence or presence of different dilutions of sterile-filtered WE in medium. For control samples, 200 μl medium was added instead of specific stimuli. Alternatively, the cells were seeded into 384-well plates at 2500 cells/well directly together with test compounds or growth factors and WE or medium in a total volume of […].
# After fixation with paraformaldehyde, the cells were incubated for 1 hour at room temperature with a monoclonal mouse-anti-human antibody against alpha-smooth muscle actin (α-SMA) from e-Bioscience, washed 3 times with PBS and developed with an Alexa Fluor-labelled donkey-anti-mouse IgG (Molecular Probes). […]
# [3] = test system: primary human dermal fibroblasts (HDF); experiment: Fibroblast-derived matrix (FDM) formation assay (3D) with wound exudate; assay type: cell-based; details: for 3D fibroblast culture (FDM formation), effect of PARP inhibitors: FIG. 7, WE from patient #78
# Description: HDF cells were seeded at 5000 cells/well on day −3 into 96-well tissue culture plates (1250 cells/well for 384-well plates), which had been pre-coated for 1 hour at 37° C. with 0.2% gelatin solution (Sigma). When the cells reached confluence (=day 0), a matrix promoting supplement (vitamin C: 2-phospho-L-ascorbic acid trisodium salt, 100 μg/ml; Sigma) was added together with test samples containing PDGF-BB, TGF-ß1 or graded concentrations of compounds −/+WE as described for the HDF proliferation assay. After 4 days, medium was replaced by fresh vitamin C—and stimulus—as well as compound-containing medium, maintaining the conditions initiated on day 0. TGF-ß1 and PDGF-BB were included as positive controls to promote FDM formation and cell growth, respectively. After a total incubation time of 8 days, FDM production was measured in fixed cultures via SRB staining and evaluated as described above. In some cases, the experiment was stopped and evaluated already on day 4.
# Low molecular weight compounds (see list in Table 1) were dissolved in DMSO (Bioreagent for cell culture, Sigma) at 10 mM or 100 mM and diluted at least 1:1000 in medium for cellular assays (final DMSO concentration ≤0.1%).
# Cells were incubated with compounds for 72 hours in proliferation assays and up to 8 days for FDM assay (refreshed after 4 days). When compounds were tested for their effect on WE stimulation, the incubation of cells with compounds was started and ended simultaneously with WE-incubation.
# [4] = test system: wound exudate-induced pig wounds; experiment: Porcine model of delayed wound healing induced by human wound exudates; assay type: in vivo; details: veliparib 10 mM, talazoparib 1 mM
# From the text: The pig is regarded as the species with the highest correlation to man in skin anatomy and physiology. Pig wounds tend to heal by a combination of granulation tissue formation and contraction, similar to human wounds, and porcine wound healing studies show a high concordance with human studies. We developed a chronically inflamed porcine wound model. Acute pig wounds were stimulated by a combination of human chronic wound fluids and the toll-like receptors 7 and 8 (TLR7,8) agonist resiquimod (R848).
# Female domestic white pigs at the age of 10-12 weeks and a body weight of approximately 12 kg were sedated with 20 mg Ketamin/2 mg Xylacin i.m. followed by inhalation anesthesia via Isofluran. Immediately after induction of anesthesia, a fentanyl transdermal patch (50 μg/h) was applied to control postsurgical pain. The fentanyl patch was replaced daily for the first 3 days after surgery and afterwards only when signs of pain were apparent. Before wounding, the back hair of the animals was clipped and the skin was cleaned with Braunol and disinfected with Skinsept. Then a total of 24 full-thickness excisional wounds per animal were applied using a 6 mm disposable biopsy punch. Immediately after wounding 50 μl of a 0.05% R848 gel was applied topically to the wounds which were covered with dressing (Mölnlycke Health Care AB, Sweden). 6 hours later, the wounds were treated with 3% HPMC (hydroxypropyl methylcellulose)-gellified human wound exudates or human serum as controls. Wound exudates had been harvested from negative pressure wound therapy systems used to treat patients diagnosed with chronic ulcers. Induction of wound inflammation by R848 and wound exudate was carried out for a total of 5 consecutive days.
# From day 6 to day 10, veliparib and talazoparib at 10 mM and 1 mM, respectively, were dissolved in vehicle (50% propylene glycol/47.5% water/0.5% Tween 80/2.0% HPMC), applied to the wounds once daily and covered with dressing. Until day 12, wounds and surrounding skin were clinically examined once daily, upon dressing change, and observed changes were scored on a scale from 0-3. The following criteria were used:
# The total achievable score (non-healing) is 19. Healing is associated with low scores.
# [5] = FIG. 4, 3D fibroblast culture with WE
# [6] = FIG. 18, induced by WE #91, topical once daily day 6-10
# [7] = FIG. 19, induced by WE #43, day 6-10
SMILES,wound exudate-induced IL-1ß secretion [1],expression of α-SMA [2],"formation of fibroblast-derived matrix, optically evaluated by microscopy [3, 5]","formation of fibroblast-derived matrix, optically evaluated by microscopy ([3]; FIG. 4, 3D fibroblast culture with WE, listed as talazoparib)","3D fibroblast culture (FDM formation), effect of PARP inhibitors [3]","3D fibroblast culture (FDM formation), effect of PARP inhibitors ([3]; listed as talazoparib)","delayed pig wound healing (time course, clinical score) [4, 6]","delayed pig wound healing (time course, clinical score) [4, 7]","formation of fibroblast-derived matrix, combination with dexamethasone ([3]; FIG. 4, 3D fibroblast culture with WE, microscopy)","formation of fibroblast-derived matrix, veliparib and glucocorticoids combined ([3]; FIG. 5, WE of patient #78 (diabetes, immunosuppression after kidney transplantation))","formation of fibroblast-derived matrix, veliparib and glucocorticoids combined ([3]; FIG. 6, WE of patient #49 (non-diabetic, non-immunosuppressed))"
Cn1ncnc1[C@H]1c2n[nH]c(=O)c3cc(F)cc(c23)N[C@@H]1c1ccc(F)cc1 [Talazoparib],reducing IL-1ß secretion,able to induce expression of α-SMA,“cleaned up” WE-induced fibroblast matrix inhibition,particularly strong and beneficial,most active of the PARP inhibitors tested in 3D culture,strong and consistent positive effect,improve wound healing,improves wound healing,–,–,–
"C[C@]1(c2nc3c(C(N)=O)cccc3[nH]2)CCCN1 [Veliparib, 2-((2R)-2-methylpyrrolidin-2-yl)-1H-benzimidazole-4-carboxamide]",reducing IL-1ß secretion,–,“cleaned up” WE-induced fibroblast matrix inhibition,–,strong and consistent positive effect,–,improve wound healing,only a minor effect,superior to each substance alone,enhances the effect of glucocorticoids,"could be enhanced with glucocorticoids, but not vice versa"

# Reference: patent US11638709B2, “Rucaparib, Talazoparib, Veliparib, Olaparib and AZD 2461 for treating impaired skin wound healing” (AKRIBES BIOMEDICAL GMBH, priority 2017, dated 2023)
